In ChEMBL document CHEMBL3045519, “Selective Herbicidal Activity of 3, 5-Dichloropyridyloxy-phenoxypropionamidoxyacetic Acid Derivatives between Wheat and Wild Oat” (J Pestic Sci, 1996):
Calls of active or inactive are those of the source.

Experiments:
Triticum aestivum [1] = test: Phytotoxicity against Triticum aestivum (wheat) under greenhouse conditions at 1.3 g/a at 1.5-leaf stage measured after 3 weeks by pot test; type: organism-based; settings: in vivo, 504 h
Triticum aestivum [2] = test: Phytotoxicity against Triticum aestivum (wheat) under greenhouse conditions at 0.3 g/a at 1.5-leaf stage measured after 3 weeks by pot test; type: organism-based; settings: in vivo, 504 h
Triticum aestivum [3] = test: Phytotoxicity against Triticum aestivum (wheat) under greenhouse conditions at 2.5 g/a at 1.5-leaf stage measured after 3 weeks by pot test; type: organism-based; settings: in vivo, 504 h
Avena fatua [4] = test: Post-emergence herbicidal activity against Avena fatua under greenhouse conditions at 2.5 g/a at 1.5-leaf stage measured after 3 weeks by pot test; type: functional, organism-based
Avena fatua [5] = test: Post-emergence herbicidal activity against Avena fatua under greenhouse conditions at 1.3 g/a at 1.5-leaf stage measured after 3 weeks by pot test; type: functional, organism-based
Avena fatua [6] = test: Post-emergence herbicidal activity against Avena fatua under greenhouse conditions at 0.6 g/a at 1.5-leaf stage measured after 3 weeks by pot test; type: functional, organism-based
Triticum aestivum [7] = test: Phytotoxicity against Triticum aestivum (wheat) under greenhouse conditions at 0.6 g/a at 1.5-leaf stage measured after 3 weeks by pot test; type: organism-based; settings: in vivo, 504 h
Avena fatua [8] = test: Post-emergence herbicidal activity against Avena fatua under greenhouse conditions at 0.3 g/a at 1.5-leaf stage measured after 3 weeks by pot test; type: functional, organism-based
Triticum aestivum [9] = test: Phytotoxicity against Triticum aestivum (wheat) under greenhouse conditions at 5 g/a at 1.5-leaf stage measured after 3 weeks by pot test; type: organism-based; settings: in vivo, 504 h
Avena fatua [10] = test: Post-emergence herbicidal activity against Avena fatua under greenhouse conditions at 10 g/a at 1.5-leaf stage measured after 3 weeks by pot test; type: functional, organism-based
Avena fatua [11] = test: Post-emergence herbicidal activity against Avena fatua under greenhouse conditions at 5 g/a at 1.5-leaf stage measured after 3 weeks by pot test; type: functional, organism-based
Triticum aestivum [12] = test: Phytotoxicity against Triticum aestivum (wheat) under greenhouse conditions at 10 g/a at 1.5-leaf stage measured after 3 weeks by pot test; type: organism-based; settings: in vivo, 504 h
Avena fatua [13] = test: Post-emergence herbicidal activity against Avena fatua under greenhouse conditions at 40 g/a at 1.5-leaf stage measured after 3 weeks by pot test; type: functional, organism-based
Triticum aestivum [14] = test: Phytotoxicity against Triticum aestivum (wheat) under greenhouse conditions at 40 g/a at 1.5-leaf stage measured after 3 weeks by pot test; type: organism-based; settings: in vivo, 504 h

Measured: Activity

CC(Oc1ccc(Oc2ncc(Cl)cc2Cl)cc1)C(=O)N(C)OCC(=O)O (stereo not given)
inactive: Avena fatua [6] | Avena fatua [8]
Non-toxic: Triticum aestivum [1] | Triticum aestivum [2] | Triticum aestivum [3] | Triticum aestivum [7]
active: Avena fatua [4] | Avena fatua [5]

CC(Oc1ccc(Oc2ncc(Cl)cc2Cl)cc1)C(=O)NO (stereo not given)
inactive: Avena fatua [8]
Non-toxic: Triticum aestivum [1] | Triticum aestivum [2] | Triticum aestivum [3] | Triticum aestivum [7]
active: Avena fatua [4] | Avena fatua [5] | Avena fatua [6]

CC(Oc1ccc(Oc2ncc(Cl)cc2Cl)cc1)C(=O)NCCC(=O)O (stereo not given)
active: Avena fatua [4] | Avena fatua [5]
Non-toxic: Triticum aestivum [1] | Triticum aestivum [2] | Triticum aestivum [3] | Triticum aestivum [7]
inactive: Avena fatua [6] | Avena fatua [8]

CCOC(=O)C(C)Oc1ccc(Oc2ncc(Cl)cc2Cl)cc1 (stereo not given)
active: Avena fatua [4] | Avena fatua [5] | Avena fatua [6] | Avena fatua [8]
Toxic: Triticum aestivum [1] | Triticum aestivum [2] | Triticum aestivum [3] | Triticum aestivum [7]

CCCCOC(=O)CNC(=O)C(C)Oc1ccc(Oc2ncc(Cl)cc2Cl)cc1 (stereo not given)
Non-toxic: Triticum aestivum [1] | Triticum aestivum [2] | Triticum aestivum [3] | Triticum aestivum [7]
active: Avena fatua [4] | Avena fatua [5] | Avena fatua [6] | Avena fatua [8]

CCOC(=O)CNC(=O)C(C)Oc1ccc(Oc2ncc(Cl)cc2Cl)cc1 (stereo not given)
Toxic: Triticum aestivum [3]
Non-toxic: Triticum aestivum [1] | Triticum aestivum [2] | Triticum aestivum [7]
active: Avena fatua [4] | Avena fatua [5] | Avena fatua [6] | Avena fatua [8]

CC(Oc1ccc(Oc2ncc(Cl)cc2Cl)cc1)C(=O)NCC(N)=O (stereo not given)
active: Avena fatua [4] | Avena fatua [5] | Avena fatua [6] | Avena fatua [8]
Non-toxic: Triticum aestivum [1] | Triticum aestivum [2] | Triticum aestivum [7]
Toxic: Triticum aestivum [3]

CC(Oc1ccc(Oc2ncc(Cl)cc2Cl)cc1)C(=O)O (stereo not given) [PYRIPHENOP]
Toxic: Triticum aestivum [1] | Triticum aestivum [3] | Triticum aestivum [7]
active: Avena fatua [4] | Avena fatua [5] | Avena fatua [6] | Avena fatua [8]
Non-toxic: Triticum aestivum [2]

CCCOC(=O)CNC(=O)C(C)Oc1ccc(Oc2ncc(Cl)cc2Cl)cc1 (stereo not given)
active: Avena fatua [4] | Avena fatua [5] | Avena fatua [6] | Avena fatua [8]
Non-toxic: Triticum aestivum [1] | Triticum aestivum [2] | Triticum aestivum [3] | Triticum aestivum [7]

COC(=O)C(C)Oc1ccc(Oc2ncc(Cl)cc2Cl)cc1 (stereo not given)
Toxic: Triticum aestivum [1] | Triticum aestivum [2] | Triticum aestivum [3] | Triticum aestivum [7]
active: Avena fatua [4] | Avena fatua [5] | Avena fatua [6] | Avena fatua [8]

CC(Oc1ccc(Oc2ncc(Cl)cc2Cl)cc1)C(=O)NOCC(=O)O (stereo not given)
active: Avena fatua [4] | Avena fatua [6] | Avena fatua [8]
Non-toxic: Triticum aestivum [1] | Triticum aestivum [2] | Triticum aestivum [3] | Triticum aestivum [7]
inactive: Avena fatua [5]

CC(Oc1ccc(Oc2ccc(C(F)(F)F)cn2)cc1)C(=O)O (stereo not given) [FLUAZIFOP]
active: Avena fatua [4] | Avena fatua [5] | Avena fatua [6] | Avena fatua [8]
Toxic: Triticum aestivum [1] | Triticum aestivum [2] | Triticum aestivum [3] | Triticum aestivum [7]

CC(Oc1ccc(Oc2ncc(C(F)(F)F)cc2Cl)cc1)C(=O)NOCC(=O)O (stereo not given)
Toxic: Triticum aestivum [1] | Triticum aestivum [2] | Triticum aestivum [3] | Triticum aestivum [7]
active: Avena fatua [4] | Avena fatua [5] | Avena fatua [6] | Avena fatua [8]

O=C(O)CONC(=O)COc1ccc(Oc2ncc(Cl)cc2Cl)cc1
inactive: Avena fatua [4] | Avena fatua [5] | Avena fatua [6] | Avena fatua [8]
Non-toxic: Triticum aestivum [1] | Triticum aestivum [2] | Triticum aestivum [3] | Triticum aestivum [7]

CC(Oc1ccc(Oc2cnc3cc(Cl)ccc3n2)cc1)C(=O)NOCC(=O)O (stereo not given)
active: Avena fatua [4] | Avena fatua [5] | Avena fatua [6] | Avena fatua [8]
Toxic: Triticum aestivum [1] | Triticum aestivum [2] | Triticum aestivum [3] | Triticum aestivum [7]

CC(Oc1ccc(Oc2ccc(Cl)cc2Cl)cc1)C(=O)O (stereo not given) [DICLOFOP]
active: Avena fatua [4] | Avena fatua [5] | Avena fatua [10] | Avena fatua [11]
Non-toxic: Triticum aestivum [9] | Triticum aestivum [1] | Triticum aestivum [3] | Triticum aestivum [12]

CONC(=O)C(C)Oc1ccc(Oc2ncc(Cl)cc2Cl)cc1 (stereo not given)
Toxic: Triticum aestivum [1] | Triticum aestivum [3] | Triticum aestivum [7]
active: Avena fatua [4] | Avena fatua [5] | Avena fatua [6] | Avena fatua [8]
Non-toxic: Triticum aestivum [2]

CNC(=O)C(C)Oc1ccc(Oc2ncc(Cl)cc2Cl)cc1 (stereo not given)
Non-toxic: Triticum aestivum [1] | Triticum aestivum [2] | Triticum aestivum [3] | Triticum aestivum [7]
inactive: Avena fatua [4] | Avena fatua [5] | Avena fatua [6] | Avena fatua [8]

CCCNC(=O)CNC(=O)C(C)Oc1ccc(Oc2ncc(Cl)cc2Cl)cc1 (stereo not given)
Toxic: Triticum aestivum [3]
active: Avena fatua [4] | Avena fatua [5] | Avena fatua [6]
Non-toxic: Triticum aestivum [1] | Triticum aestivum [2] | Triticum aestivum [7]
inactive: Avena fatua [8]

CC(Oc1ccc(Oc2ccc(Cl)cc2Cl)cc1)C(=O)NOCC(=O)O (stereo not given)
inactive: Avena fatua [13]
Non-toxic: Triticum aestivum [14]

CC(Oc1ccc(Oc2ncc(C(F)(F)F)cc2Cl)cc1)C(=O)O (stereo not given) [HALOXYFOP]
Toxic: Triticum aestivum [1] | Triticum aestivum [2] | Triticum aestivum [3] | Triticum aestivum [7]
active: Avena fatua [4] | Avena fatua [5] | Avena fatua [6] | Avena fatua [8]

CC(Oc1ccc(Oc2ncc(Cl)cc2Cl)cc1)C(=O)NN (stereo not given)
inactive: Avena fatua [4] | Avena fatua [5] | Avena fatua [6] | Avena fatua [8]
Non-toxic: Triticum aestivum [1] | Triticum aestivum [2] | Triticum aestivum [3] | Triticum aestivum [7]

CNC(=O)CNC(=O)C(C)Oc1ccc(Oc2ncc(Cl)cc2Cl)cc1 (stereo not given)
active: Avena fatua [4] | Avena fatua [5] | Avena fatua [6] | Avena fatua [8]
Non-toxic: Triticum aestivum [1] | Triticum aestivum [2] | Triticum aestivum [3] | Triticum aestivum [7]

CC(Oc1ccc(Oc2ncc(Cl)cc2Cl)cc1)C(=O)N(C)C (stereo not given)
Non-toxic: Triticum aestivum [14]
inactive: Avena fatua [13]

CC(Oc1ccc(Oc2ccc(C(F)(F)F)cn2)cc1)C(=O)NOCC(=O)O (stereo not given)
Toxic: Triticum aestivum [1] | Triticum aestivum [2] | Triticum aestivum [3] | Triticum aestivum [7]
inactive: Avena fatua [8]
active: Avena fatua [4] | Avena fatua [5] | Avena fatua [6]

CC(Oc1ccc(Oc2cnc3cc(Cl)ccc3n2)cc1)C(=O)O (stereo not given) [QUIZALOFOP]
Toxic: Triticum aestivum [1] | Triticum aestivum [2] | Triticum aestivum [3] | Triticum aestivum [7]
active: Avena fatua [4] | Avena fatua [5] | Avena fatua [6] | Avena fatua [8]

CC(Oc1ccc(Oc2ncc(Cl)cc2Cl)cc1)C(N)=O (stereo not given)
active: Avena fatua [4] | Avena fatua [5] | Avena fatua [6]
Non-toxic: Triticum aestivum [1] | Triticum aestivum [2] | Triticum aestivum [3] | Triticum aestivum [7]
inactive: Avena fatua [8]

CCCCNC(=O)CNC(=O)C(C)Oc1ccc(Oc2ncc(Cl)cc2Cl)cc1 (stereo not given)
Non-toxic: Triticum aestivum [1] | Triticum aestivum [2] | Triticum aestivum [7]
active: Avena fatua [4] | Avena fatua [5] | Avena fatua [6] | Avena fatua [8]
Toxic: Triticum aestivum [3]

COC(=O)CNC(=O)C(C)Oc1ccc(Oc2ncc(Cl)cc2Cl)cc1 (stereo not given)
active: Avena fatua [4] | Avena fatua [5] | Avena fatua [6] | Avena fatua [8]
Non-toxic: Triticum aestivum [1] | Triticum aestivum [2] | Triticum aestivum [3] | Triticum aestivum [7]
